Results reported in patent US9353107B2 (Aurigene Discovery Technologies Limited, priority 2012, dated 2016).

Target: T1, recombinant human ALK enzyme (ALK WT) (Homo sapiens, UniProt Q9UM73)
T1 construct: purchased Carna Biosciences 08-518
Test: ALK WT cell free enzymatic assay (TR-FRET)
Assay type: biochemical
Settings: 1 μM ATP; for IC50: 10 point dose response; for inhibition at 0.1 µM: compound at 100 nM; for inhibition at 0.1 µM / inhibition at 1 µM: 30 min pre-incubation; for inhibition at 1 µM: compound at 1 μM
Procedure, shortened: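 Read-out is TR-FRET (665 nm/615 nm ratio) using an Eu-labeled anti-phosphotyrosine antibody. Compound is pre-incubated 30 min with recombinant human ALK, then reacted 30 min with 1 μM ATP and 40 nM Poly GT substrate. Values are percent inhibition at 100 nM and 1 μM, plus IC50 from 10-point variable-slope regression.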

T1 sequence (Q9UM73 1058-1620 limits assumed): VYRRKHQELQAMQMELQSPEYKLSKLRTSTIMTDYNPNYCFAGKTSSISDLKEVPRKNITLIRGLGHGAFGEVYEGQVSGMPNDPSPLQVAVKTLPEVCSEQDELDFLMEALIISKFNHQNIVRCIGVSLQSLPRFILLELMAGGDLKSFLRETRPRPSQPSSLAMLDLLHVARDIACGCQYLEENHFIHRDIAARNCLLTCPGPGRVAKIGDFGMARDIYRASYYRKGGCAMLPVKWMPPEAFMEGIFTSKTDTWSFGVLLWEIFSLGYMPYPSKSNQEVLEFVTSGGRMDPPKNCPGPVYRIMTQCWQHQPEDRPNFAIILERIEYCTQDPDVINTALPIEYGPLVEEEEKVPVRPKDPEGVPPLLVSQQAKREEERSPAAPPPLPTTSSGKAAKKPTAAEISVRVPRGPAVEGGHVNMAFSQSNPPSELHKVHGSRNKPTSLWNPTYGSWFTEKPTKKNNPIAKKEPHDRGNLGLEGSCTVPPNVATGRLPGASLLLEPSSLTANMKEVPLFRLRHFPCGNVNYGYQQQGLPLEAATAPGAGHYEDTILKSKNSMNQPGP

IC50 | inhibition at 0.1 µM | inhibition at 1 µM | Compound
< 50 nM | 92% | 98% | Fc1cccc(Cn2cc(-c3c[nH]c4ncc(-c5cnc(N6CCNCC6)c(F)c5)cc34)cn2)c1 [Example 173, 5-(5-fluoro-6-(piperazin-1-yl)pyridin-3-yl)-3-(1-(3-fluorobenzyl)-1H-pyrazol-4-yl)-1H-pyrrolo[2,3-b]pyridine]
< 50 nM | 86% | 99% | CS(=O)(=O)Nc1cc(-c2cnc3[nH]cc(-c4ccn(Cc5cc(F)cc(F)c5)n4)c3c2)ccc1C1CCNCC1 [Example 176, N-(5-(3-(1-(3,5-difluorobenzyl)-1H-pyrazol-3-yl)-1H-pyrrolo[2,3-b]pyridin-5-yl)-2-(piperidin-4-yl)phenyl)methanesulfonamide]
< 50 nM | 92% | 99% | CN1CCN(c2ncc(-c3cnc4[nH]cc(-c5cnn(Cc6cccc(F)c6)c5)c4c3)cc2F)CC1 [Example 179, 5-(5-fluoro-6-(4-methylpiperazin-1-yl)pyridin-3-yl)-3-(1-(3-fluorobenzyl)-1H-pyrazol-4-yl)-1H-pyrrolo[2,3-b]pyridine]
< 50 nM | 93% | 100% | C[C@@H](O)CN1CCN(c2ncc(-c3cnc4[nH]cc(-c5cnn(Cc6cccc(F)c6)c5)c4c3)cc2F)CC1 [Example 180, (R)-1-(4-(3-fluoro-5-(3-(1-(3-fluorobenzyl)-1H-pyrazol-4-yl)-1H-pyrrolo[2,3-b]pyridin-5-yl)pyridin-2-yl)piperazin-1-yl)propan-2-ol]
– | 80% | 86% | c1ccc(CCn2cc(-c3c[nH]c4ncc(-c5ccc(N6CCNCC6)cc5)cc34)cn2)cc1 [Example 185, 3-(1-phenethyl-1H-pyrazol-4-yl)-5-(4-(piperazin-1-yl)phenyl)-1H-pyrrolo[2,3-b]pyridine]

The next lines start with the compound.

Compound | IC50 | inhibition at 0.1 µM | inhibition at 1 µM
c1cc(Cn2cc(-c3c[nH]c4ncc(-c5ccc(C6CCNCC6)cc5)cc34)cn2)ccn1 [Example 171, 5-(4-(piperidin-4-yl)phenyl)-3-(1-(pyridin-4-ylmethyl)-1H-pyrazol-4-yl)-1H-pyrrolo[2,3-b]pyridine] | 50 to 250 nM | 41% | 88%
Fc1cccc(Cn2cc(-c3c[nH]c4ncc(-c5ccc(N6CCNCC6)c(F)c5)cc34)cn2)c1 [Example 172, 5-(3-fluoro-4-(piperazin-1-yl)phenyl)-3-(1-(3-fluorobenzyl)-1H-pyrazol-4-yl)-1H-pyrrolo[2,3-b]pyridine] | < 50 nM | 99% | 100%
COc1cc(-c2cnc3[nH]cc(-c4cnn(Cc5cccc(F)c5)c4)c3c2)cnc1N1CCNCC1 [Example 174, 3-(1-(3-fluorobenzyl)-1H-pyrazol-4-yl)-5-(5-methoxy-6-(piperazin-1-yl)pyridin-3-yl)-1H-pyrrolo[2,3-b]pyridine] | < 50 nM | 96% | 100%
Cc1nn(Cc2cccc(F)c2)c(C)c1-c1c[nH]c2ncc(-c3ccc(C4CCNCC4)c(F)c3)cc12 [Example 175, 5-(3-fluoro-4-(piperidin-4-yl)phenyl)-3-(1-(3-fluorobenzyl)-3,5-dimethyl-1H-pyrazol-4-yl)-1H-pyrrolo[2,3-b]pyridine] | < 50 nM | 96% | 100%
COc1cc(-c2cnc3[nH]cc(-c4c(C)nn(Cc5cc(F)cc(F)c5)c4C)c3c2)cnc1N [Example 177, 5-(3-(1-(3,5-difluorobenzyl)-3,5-dimethyl-1H-pyrazol-4-yl)-1H-pyrrolo[2,3-b]pyridin-5-yl)-3-methoxypyridin-2-amine] | < 50 nM | 96% | 100%
COc1cc(-c2cnc3[nH]cc(-c4c(C)nn(Cc5cccc(F)c5)c4C)c3c2)cnc1N [Example 178, 5-(3-(1-(3-fluorobenzyl)-3,5-dimethyl-1H-pyrazol-4-yl)-1H-pyrrolo[2,3-b]pyridin-5-yl)-3-methoxypyridin-2-amine] | < 50 nM | 94% | 100%
NC(=O)CN1CCC(Cc2cccc(-c3cnc4[nH]cc(-c5cnn(Cc6cccc(F)c6)c5)c4c3)c2)CC1 [Example 184, 2-(4-(3-(3-(1-(3-fluorobenzyl)-1H-pyrazol-4-yl)-1H-pyrrolo[2,3-b]pyridin-5-yl)benzyl)piperidin-1-yl)acetamide] | < 50 nM | 92% | 100%
Cc1nn(Cc2cccc(F)c2)c(C)c1-c1c[nH]c2ncc(-c3cccc(N4CCN(CCO)CC4)c3)cc12 [Example 186, 2-(4-(3-(3-(1-(3-fluorobenzyl)-3,5-dimethyl-1H-pyrazol-4-yl)-1H-pyrrolo[2,3-b]pyridin-5-yl)phenyl)piperazin-1-yl)ethanol] | < 50 nM | 83% | 96%
